The subject of the assay is Bacillus stearothermophilus spores. Description: Spore outgrowth (color change) of indicators after prevacuum steam sterilization. It counts as cell-based. Particulars: 4-pulse prevacuum steam 121° C. The method, boiled down:
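Self-contained indicators held coated spore strips, a polypropylene microfiber barrier and a crushable inner container. That container held peptone, L-alanine, 4-methylumbelliferyl-alpha-D-glucoside and bromocresol purple at pH 7.6. Indicators sat in metal trays in a Getinge sterilizer running pulses of 0.075–0.085 bar vacuum and steam to 1.00 bar at 121° C. Incubation at 60° C followed, and yellow color at 168 hours scored spore outgrowth.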

Where [1] appears, read: Example 4, 50 mg/ml coating, 7–18 min.

As for Decaglyceryl Decaoleate, the “NO. GROWTH POSITIVE 168 HR” value was 31 under setting [1] and 30 (Example 4, 100 mg/ml coating, 7–18 min).
Take Decaglyceryl Monostearate: the “NO. GROWTH POSITIVE 168 HR” value is 39 (Example 1, 10 mg/ml coating, 7–13 min); 34 (Example 1, 20 mg/ml coating, 7–13 min); 59 (Example 1, 40 mg/ml coating, 7–13 min); 55 (Example 1, 80 mg/ml coating, 7–13 min); 34 (Example 1, 100 mg/ml coating, 7–13 min); 29 under setting [1]. Moreover, under “Example 3, 100 mg/ml coating, 7–15 min”, the “GROWTH POSITIVE 168 HR” value was determined as 20.

The values are drawn from patent US7045343B2, “Sterilization indicator test packs” (3M Innovative Properties Company, priority 1998, dated 2006).
